# Data as given in US20240270809A1, “ORAL GLP RECEPTOR AGONISTS” (priority 2020, published 2024).
# Positions of bridges follow the written chain, without caps; N, C: chain ends. Non-standard residues stand in square brackets, D forms with d. Residues, ends and D or L forms follow the SMILES beside them. *: point of attachment. Malonyl(2,2-Me2,histaminyl) = CC(C)(C(=O)NCCc1cnc[nH]1)C(=O)*; Ala(1H-tetrazol-5-yl) = N[C@@H](Cc1nnn[nH]1)C(=O)O; αMePhe(2-F) = C[C@](N)(Cc1ccccc1F)C(=O)O; Nle = CCCC[C@H](N)C(=O)O; Aib = CC(C)(N)C(=O)O
# Assays:
# human GLP1 receptor = molecular target: T1, human GLP1 receptor (Homo sapiens, UniProt P43220); assay: cAMP accumulation assay, functional agonism of human GLP1 receptor; format: cell-based; conditions: HEK cells infected with human GLP1 receptor BacMam virus, HTRF cAMP; for Emax: HEK293, read-out: Human GLP-1R agonist cAMP Emax; for EC50: read-out: Human GLP-1R agonist cAMP pEC50 (converted)
# T1 construct: expressed in transfected cells; host or cells: HEK cells, BacMam virus transduction
# Procedure, shortened: (§1)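 cAMP read by HTRF detection reagents in lysis buffer following 45 min agonist exposure at 37 °C. Cells: frozen HEK transduced for 24 h with GLP1 or GLP2 receptor BacMam, suspended in HBSS plus 0.5 mM IBMX.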
# human GLP2 receptor = molecular target: T2, human GLP2 receptor (Homo sapiens, UniProt O95838); assay: cAMP accumulation assay, functional agonism of human GLP2 receptor; format: cell-based; conditions: HEK cells infected with human GLP2 receptor BacMam virus, HTRF cAMP; for Emax: HEK293, read-out: Human GLP-2R agonist cAMP Emax; for EC50: read-out: Human GLP-2R agonist cAMP pEC50 (converted)
# T2 construct: expressed in transfected cells; host or cells: HEK cells, BacMam virus transduction
# T2 sequence (O95838 1-553): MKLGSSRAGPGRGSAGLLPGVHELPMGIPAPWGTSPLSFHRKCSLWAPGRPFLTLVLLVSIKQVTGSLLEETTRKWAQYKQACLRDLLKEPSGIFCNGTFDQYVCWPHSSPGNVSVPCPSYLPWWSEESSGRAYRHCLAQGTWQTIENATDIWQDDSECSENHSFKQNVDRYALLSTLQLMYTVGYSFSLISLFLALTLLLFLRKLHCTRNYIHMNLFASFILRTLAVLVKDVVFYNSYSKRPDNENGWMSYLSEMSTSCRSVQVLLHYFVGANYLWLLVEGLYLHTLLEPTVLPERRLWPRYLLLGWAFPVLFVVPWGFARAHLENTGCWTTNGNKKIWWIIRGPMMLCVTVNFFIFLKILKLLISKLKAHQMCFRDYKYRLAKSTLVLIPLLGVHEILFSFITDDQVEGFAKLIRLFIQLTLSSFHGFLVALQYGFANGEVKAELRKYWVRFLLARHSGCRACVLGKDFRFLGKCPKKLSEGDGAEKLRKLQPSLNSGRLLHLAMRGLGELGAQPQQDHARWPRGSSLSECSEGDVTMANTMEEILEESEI
# Procedure, shortened: as §1
# [1] = Stability of peptides in Fasted-State Simulated Intestinal Fluid (FaSSIF); format: in vitro ADME; conditions: FaSSIF with 10 mg/ml pancreatin, 37° C.; for remaining at 0.5 h: t=30 mins, pH 6.5, 10 mg/ml pancreatin; for remaining at 0.25 h: FaSSIF pH 6.5 with 10 mg/ml pancreatin, t = 15 mins
# T1 sequence (P43220 24-463): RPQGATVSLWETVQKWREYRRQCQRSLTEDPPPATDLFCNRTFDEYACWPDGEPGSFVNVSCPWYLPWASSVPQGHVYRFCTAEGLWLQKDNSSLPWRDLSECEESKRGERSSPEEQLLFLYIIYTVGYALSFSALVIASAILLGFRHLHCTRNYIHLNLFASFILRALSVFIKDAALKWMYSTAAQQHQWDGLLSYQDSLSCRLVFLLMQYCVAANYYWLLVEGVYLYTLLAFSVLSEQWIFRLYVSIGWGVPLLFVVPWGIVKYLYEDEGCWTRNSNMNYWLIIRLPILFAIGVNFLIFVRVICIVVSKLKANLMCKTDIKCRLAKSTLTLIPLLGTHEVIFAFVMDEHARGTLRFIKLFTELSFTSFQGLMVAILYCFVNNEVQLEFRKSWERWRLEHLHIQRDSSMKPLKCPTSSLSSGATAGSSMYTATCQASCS
Structure (SMILES),Emax (human GLP1 receptor),EC50 (human GLP1 receptor),Emax (human GLP2 receptor),EC50 (human GLP2 receptor),remaining at 0.5 h [1],remaining at 0.25 h [1]
"CCCC[C@@H]1NC(=O)[C@H](CCC(=O)O)NC(=O)[C@@H](NC(=O)[C@H](CO)NC(=O)[C@H](Cc2ccccc2)NC(=O)[C@H](CO)NC(=O)CNC(=O)[C@H](Cc2nn[nH]n2)NC(=O)C(C)(C)C(=O)NCCc2c[nH]cn2)CCCCNC(=O)C[C@@H](C(=O)N[C@H](C(=O)N[C@@H](CC(C)C)C(=O)N[C@@H](CC(=O)O)C(=O)N[C@H]2CCC(=O)NCCCC[C@@H](C(=O)N[C@@H](CC(=O)O)C(=O)N[C@@H](Cc3ccccc3)C(=O)N[C@H](C(=O)N[C@@H](CC(N)=O)C(=O)N[C@@H](Cc3c[nH]c4ccccc34)C(=O)N[C@@H](CC(C)C)C(=O)N[C@H](C(=O)N[C@@H](CCC(N)=O)C(=O)N[C@H](C(=O)N[C@H]3CCC(=O)NCCCC[C@@H](C(=O)N4CCC[C@H]4C(N)=O)NC(=O)[C@H]([C@@H](C)O)NC(=O)[C@H]([C@@H](C)CC)NC3=O)[C@@H](C)O)[C@@H](C)CC)[C@@H](C)CC)NC(=O)[C@H](C)NC(=O)[C@H](C)NC(=O)[C@H](CCCCN)NC2=O)[C@@H](C)CC)NC(=O)[C@@H](Cc2ccccc2)NC1=O [Example 13] ({Malonyl(2,2-Me2,histaminyl)}-[Ala(1H-tetrazol-5-yl)]GSFSKE[Nle][dF]DILDEKAAKDFINWLIQTEITKP-NH2; lactam 6-10, 14-18, 28-31 (inferred); C-terminus assumed)",92.5%,0.251 nM,104%,0.0316 nM,3.8%,
"CCCC[C@@H]1NC(=O)[C@H](CCC(=O)O)NC(=O)[C@@H](NC(=O)[C@H](CO)NC(=O)[C@H](Cc2ccccc2)NC(=O)[C@H](CO)NC(=O)CNC(=O)[C@H](CC(=O)O)NC(=O)C(C)(C)NC(=O)[C@@H](N)Cc2c[nH]cn2)CCCCNC(=O)C[C@@H](C(=O)N[C@H](C(=O)N[C@@H](CC(C)C)C(=O)N[C@@H](CC(=O)O)C(=O)N[C@H]2CCC(=O)NCCCC[C@@H](C(=O)N[C@@H](CC(=O)O)C(=O)N[C@@H](Cc3ccccc3)C(=O)N[C@H](C(=O)N[C@@H](CC(N)=O)C(=O)N[C@@H](Cc3c[nH]c4ccccc34)C(=O)N[C@@H](CC(C)C)C(=O)N[C@H](C(=O)N[C@@H](CCC(N)=O)C(=O)N[C@H]3CCC(=O)NCCCC[C@@H](C(N)=O)NC(=O)[C@H]([C@@H](C)O)NC(=O)[C@H]([C@@H](C)CC)NC(=O)[C@H](CCCCN)NC3=O)[C@@H](C)CC)[C@@H](C)CC)NC(=O)[C@H](C)NC(=O)[C@H](C)NC(=O)[C@H](CCCCN)NC2=O)[C@@H](C)CC)NC(=O)[C@@H](Cc2ccccc2)NC1=O [Example 4] (H-H[Aib]DGSFSKE[Nle][dF]DILDEKAAKDFINWLIQEKITK-NH2; lactam 8-12, 16-20, 29-33 (inferred); C-terminus assumed)",94.7%,0.501 nM,103%,0.01 nM,4.3%,
"CCCC[C@H](NC(=O)[C@H](CCC(=O)O)NC(=O)[C@H](CC(=O)O)NC(=O)[C@H](CO)NC(=O)[C@H](Cc1ccccc1)NC(=O)[C@H](CO)NC(=O)CNC(=O)[C@H](Cc1nn[nH]n1)NC(=O)C(C)(C)C(=O)NCCc1c[nH]cn1)C(=O)N[C@H](Cc1ccccc1)C(=O)N[C@H]1CCCCNC(=O)C[C@@H](C(=O)N[C@@H](CCCCN)C(=O)N[C@@H](C)C(=O)N[C@@H](C)C(=O)N[C@@H](CCCCN)C(=O)N[C@@H](CC(=O)O)C(=O)N[C@@H](Cc2ccccc2)C(=O)N[C@H](C(=O)N[C@@H](CC(N)=O)C(=O)N[C@@H](Cc2c[nH]c3ccccc23)C(=O)N[C@@H](CC(C)C)C(=O)N[C@H](C(=O)N[C@@H](CCC(N)=O)C(=O)N[C@H](C(=O)N[C@H]2CCC(=O)NCCCC[C@@H](C(N)=O)NC(=O)[C@H]([C@@H](C)O)NC(=O)[C@H]([C@@H](C)CC)NC2=O)[C@@H](C)O)[C@@H](C)CC)[C@@H](C)CC)NC(=O)[C@H](CC(=O)O)NC(=O)[C@H](CC(C)C)NC(=O)[C@H]([C@@H](C)CC)NC1=O [Example 105] ({Malonyl(2,2-Me2,histaminyl)}-[Ala(1H-tetrazol-5-yl)]GSFSDE[Nle][dF]KILDDKAAKDFINWLIQTEITK-NH2; lactam 10-14, 28-31 (inferred); C-terminus assumed)",97.4%,0.0251 nM,101%,0.0251 nM,,1.6%
"CCCC[C@H](NC(=O)[C@H](CCC(=O)O)NC(=O)[C@H](CC(=O)O)NC(=O)[C@H](CO)NC(=O)[C@H](Cc1ccccc1)NC(=O)[C@H](CO)NC(=O)CNC(=O)[C@H](Cc1nn[nH]n1)NC(=O)C(C)(C)C(=O)NCCc1c[nH]cn1)C(=O)N[C@H](Cc1ccccc1)C(=O)N[C@H]1CCCCNC(=O)C[C@@H](C(=O)N[C@@H](CCCCN)C(=O)N[C@@H](C)C(=O)N[C@@H](C)C(=O)N[C@@H](CCCCN)C(=O)N[C@@H](CC(=O)O)C(=O)N[C@@H](Cc2ccccc2)C(=O)N[C@H](C(=O)N[C@@H](CC(N)=O)C(=O)N[C@@H](Cc2c[nH]c3ccccc23)C(=O)N[C@@H](CC(C)C)C(=O)N[C@H](C(=O)N[C@@H](CCC(N)=O)C(=O)N[C@H](C(=O)N[C@@H](CCCCN)C(=O)N[C@H](C(=O)N[C@H](C(=O)N[C@@H](Cc2ccccc2)C(N)=O)[C@@H](C)O)[C@@H](C)CC)[C@@H](C)O)[C@@H](C)CC)[C@@H](C)CC)NC(=O)[C@H](CC(=O)O)NC(=O)[C@H](CC(C)C)NC(=O)[C@H]([C@@H](C)CC)NC1=O [Example 91] ({Malonyl(2,2-Me2,histaminyl)}-[Ala(1H-tetrazol-5-yl)]GSFSDE[Nle][dF]KILDDKAAKDFINWLIQTKITF-NH2; lactam 10-14)",98.8%,0.251 nM,104%,0.01 nM,,8.8%
"CCCC[C@@H]1NC(=O)[C@H](CCC(=O)O)NC(=O)[C@@H](NC(=O)[C@H](CO)NC(=O)[C@](C)(Cc2ccccc2F)NC(=O)[C@H](CO)NC(=O)CNC(=O)[C@H](CC(=O)O)NC(=O)C(C)(C)NC(=O)[C@@H](N)Cc2c[nH]cn2)CCCCNC(=O)C[C@@H](C(=O)N[C@H](C(=O)N[C@@H](CC(C)C)C(=O)N[C@@H](CC(=O)O)C(=O)N[C@H]2CCC(=O)NCCCC[C@@H](C(=O)N[C@@H](CC(=O)O)C(=O)N[C@@H](Cc3ccccc3)C(=O)N[C@H](C(=O)N[C@@H](CC(N)=O)C(=O)N[C@@H](Cc3c[nH]c4ccccc34)C(=O)N[C@@H](CC(C)C)C(=O)N[C@H](C(=O)N[C@@H](CCC(N)=O)C(=O)N[C@H]3CCC(=O)NCCCC[C@@H](C(N)=O)NC(=O)[C@H]([C@@H](C)O)NC(=O)[C@H]([C@@H](C)CC)NC(=O)[C@H](CCCCN)NC3=O)[C@@H](C)CC)[C@@H](C)CC)NC(=O)[C@H](C)NC(=O)[C@H](C)NC(=O)[C@H](CCCCN)NC2=O)[C@@H](C)CC)NC(=O)[C@@H](Cc2ccccc2)NC1=O [Example 18] (H-H[Aib]DGS[αMePhe(2-F)]SKE[Nle][dF]DILDEKAAKDFINWLIQEKITK-NH2; lactam 8-12, 16-20, 29-33; C-terminus assumed)",97.8%,0.1 nM,104%,0.0158 nM,17.3%,
"CCCC[C@H](NC(=O)[C@H](CCC(=O)O)NC(=O)[C@@H]1CCCCNC(=O)CC[C@H](NC(=O)[C@H](CC(=O)O)NC(=O)C(C)(C)NC(=O)[C@@H](N)Cc2c[nH]cn2)C(=O)N[C@@H](CO)C(=O)N[C@@H](Cc2ccccc2)C(=O)N[C@@H](CO)C(=O)N1)C(=O)N[C@H](Cc1ccccc1)C(=O)N[C@H](C(=O)N[C@H](C(=O)N[C@@H](CC(C)C)C(=O)N[C@@H](CC(=O)O)C(=O)N[C@H]1CCCCNC(=O)C[C@@H](C(=O)N[C@@H](CC(=O)O)C(=O)N[C@@H](Cc2ccccc2)C(=O)N[C@H](C(=O)N[C@@H](CC(N)=O)C(=O)N[C@@H](Cc2c[nH]c3ccccc23)C(=O)N[C@@H](CC(C)C)C(=O)N[C@H](C(=O)N[C@@H](CCC(N)=O)C(=O)N[C@H](C(=O)N[C@@H](CCCCN)C(=O)N[C@H](C(=O)N[C@H](C(=O)N[C@@H](CC(=O)O)C(N)=O)[C@@H](C)O)[C@@H](C)CC)[C@@H](C)O)[C@@H](C)CC)[C@@H](C)CC)NC(=O)[C@H](C)NC(=O)[C@H](C)NC(=O)[C@H](CCCCN)NC1=O)[C@@H](C)CC)[C@@H](C)O [Example 110] (H-H[Aib]DESFSKE[Nle][dF]TILDKKAADDFINWLIQTKITD-NH2; lactam 4-8, 16-20; N-terminus and C-terminus assumed)",88.1%,3.98 nM,103%,0.0158 nM,,5%
